Source: US20220362215A1, “THERAPEUTIC OR PROPHYLACTIC AGENT FOR CHRONIC KIDNEY DISEASE CONTAINING PYRAZOLE-AMIDE COMPOUND” (JAPAN TOBACCO INC., priority 2018, published 2022)

Experiments:
[1] = test system: saline-loaded SDT-fatty rats; 5/6 nephrectomized rats; assay: disease model animals exhibiting CKD-like renal disorder and decreased renal function (saline-loaded SDT-fatty rat model; 5/6 nephrectomized rat model); assay type: in vivo; conditions: oral administration in feed
Procedure: Experimental Example 1: Suppressive effects of compound A on urinary protein excretion and renal disorder by oral administration of monohydrate of compound A in saline-loaded SDT-fatty rat model
In saline-loaded Spontaneously Diabetic Torii fatty (SDI-fatty) rats, suppressive effects of compound A on urinary protein excretion and renal disorder were evaluated. The evaluation was performed by reference to non-patent document 1. As the experiment animal, 6-week-old male SDI-fatty rats (CLEA Japan, Inc.) were used. A normal powder feed (CRF-1 powder, Oriental Yeast. Co., ltd.) containing 0.005 w/w % of a monohydrate of compound A as a free form of compound A was prepared. […]
For urine, after measuring the urine volume, the protein concentration in the urine was measured by the absorbance at wavelength 590 nm using a total protein quantification kit (TONEIN-TP, Otsuka Pharmaceutical Co., Ltd.). Amount of the urinary protein excretion (mg/6 hours) was calculated from the urine volume and protein concentration. […]
The mean and standard deviation of urinary protein excretion for each group were calculated, and the results thereof are shown in FIG. 1. […]
In 5/6 nephrectomized rats, suppressive effects of compound A on urinary protein excretion and renal disorder were evaluated. […]

[2] = test system: pyruvate dehydrogenase kinase (PDHK); conditions: as described in patent document 1 (WO 2014/142290); cited from earlier work

## CC(C)(O)CCOc1cc(-c2cnn(C(C)(C)C(N)=O)c2)c2c(c1)[C@@](O)(C(F)(F)F)c1ccccc1-2 [compound A, 2-{4-[(9R)-9-hydroxy-2-(3-hydroxy-3-methylbutyloxy)-9-(trifluoromethyl)-9H-fluoren-4-yl]-1H-pyrazol-1-yl}-2-methylpropanamide]
[1]
  severity of the disease: significantly reduces the severity of the disease
[2]
  pyruvate dehydrogenase kinase (PDHK) inhibitory activity: inhibitory activity
